Like-named read-outs stand apart in the source and are kept apart here.
Columns and labels:
[1] = system: staphylococcal clinical isolates; test: Minimum Inhibitory Concentration (MIC) testing, broth microdilution, staphylococcal clinical isolates; format: cell-based; details: for MIC: read-out: MIC Activity against clinical isolate
Description: Compounds of this invention were tested for antimicrobial activity by susceptibility testing in liquid media. MICs for compounds against each strain were determined by a broth microdilution method according to the National Committee for Clinical Laboratory Standards (NCCLS) guidelines. (NCCLS. 2000. Methods for dilution antimicrobial susceptibility tests for bacteria that grow aerobically—fifth edition. Approved standard M7-A5. NCCLS, Wayne, Pa.)
Briefly, test compounds are prepared in 100 μl of 1.6% DMSO solution in multiwell plates. Several bacterial colonies from a freshly streaked plate are transferred to an appropriate rich broth, such as Mueller Hinton. The cell suspension is adjusted to an optical density of 0.09 and further diluted 1:100 with warm 2× broth. This cell suspension is dispensed into the wells containing compound solution so that the final volume is 200 μl. The plates are incubated overnight (16-20 hours) at 37° C. and turbidity is scored by eye and quantified spectrophotometrically. The MIC is defined as the lowest concentration inhibiting visible growth.
Some of the Examples were also tested for activity against staphylococcal clinical isolates. […] Activities were again scored as ‘A’ if the MIC was ≦8 micrograms/ml, ‘B’ if the MIC was 16 to 64 micrograms/ml and ‘C’ if the MIC was greater than 64 micrograms/ml.

[2] = system: Staphylococcus aureus ATCC29213; test: Minimum Inhibitory Concentration (MIC) testing, broth microdilution, Staphylococcus aureus; format: cell-based; details: Staphylococcus aureus ATCC29213; read-out: Staphylococcus aureus MICs Activity
Summary of the method: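 Broth microdilution per NCCLS M7-A5 in Mueller Hinton broth, with compound in 1.6% DMSO and inoculum at OD 0.09 diluted 1:100. Plates incubated 16–20 h at 37°C. MIC is the lowest concentration with no visible growth; scored A ≤8, B 16–64, C >64 μg/ml.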

Bacillus subtilis 168CA = test: Minimum Inhibitory Concentration (MIC) testing, broth microdilution, Bacillus subtilis; format: cell-based; details: Bacillus subtilis 168CA; read-out: Bacillus subtilis MICs Activity
Summary of the method: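 MICs were scored A (≦8 μg/ml), B (16–64 μg/ml) or C (>64 μg/ml), read as the lowest concentration preventing visible growth by eye and spectrophotometry. Plates incubated overnight (16–20 h) at 37 °C, inoculum OD 0.09 diluted 1:100 in 2× broth, per NCCLS guidelines.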

Staphylococcus aureus = test: mouse Staphylococcus aureus septicaemia model of infection; format: in vivo; details: survival at day 7 of infected mice; single intraperitoneal dose of 100 mg/kg at 1 hour after intraperitoneal inoculation with a lethal dose of Staphylococcus aureus
Description: Some of the Examples were also tested for activity in a mouse Staphylococcus aureus septicaemia model of infection.

[3] = system: various bacterial species; test: Minimum Inhibitory Concentration (MIC) testing, broth microdilution, other bacterial species; format: cell-based
Summary of the method: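 Broth microdilution per NCCLS M7-A5 in rich broth (e.g. Mueller Hinton), inoculum from OD 0.09 suspension diluted 1:100 in 2× broth. Incubation 16-20 hours at 37° C; turbidity scored visually and spectrophotometrically. MIC is the lowest concentration inhibiting visible growth, binned A ≦8, B 16-64, C >64 micrograms/ml.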

[4] = Bacillus cereus, ATCC14579, read-out: MIC Activity Bacillus cereus ATCC 14579
[5] = Staphylococcus epidermidis, ATCC12228, read-out: MIC Activity Staphylococcus epidermidis ATCC 12228
[6] = Staphylococcus haemolyticus, ATCC29970, read-out: MIC Activity Staphylococcus haemolyticus ATCC 29970
[7] = Staphylococcus saprophyticus, ATCC15305, read-out: MIC Activity Staphylococcus saprophyticus ATCC 15305

NC(=O)c1c(F)ccc(OCc2nc3cc(Cl)ccc3s2)c1F [Example 218, 3-[(5-Chloro-1,3-benzothiazol-2-yl)methoxy]-2,6-difluorobenzenecarboxamide]
MIC Activity against clinical isolate ([1]; S. aureus No. 753, Oxacillin S, Hospital): A (‘A’ if the MIC was ≦8 micrograms/ml) | MIC Activity against clinical isolate ([1]; S. aureus No. 757, Oxacillin R, Tet-R, MI-R, Hospital (tetM)): A (‘A’ if the MIC was ≦8 micrograms/ml) | MIC Activity against clinical isolate ([1]; S. aureus No. 1134, Oxacillin S, Hospital): A (‘A’ if the MIC was ≦8 micrograms/ml) | MIC Activity against clinical isolate ([1]; S. aureus No. 1135, Oxacillin R, Van-S, LZD-S, Hospital): A (‘A’ if the MIC was ≦8 micrograms/ml) | MIC Activity against clinical isolate ([1]; S. aureus No. 1651, Oxacillin R, Van-S, LZD-R, Hospital (G2576T, G)): A (‘A’ if the MIC was ≦8 micrograms/ml) | MIC Activity against clinical isolate ([1]; S. aureus No. 1652, Oxacillin R, Van-S, LZD-R, Hospital (T2500T, A)): A (‘A’ if the MIC was ≦8 micrograms/ml) | MIC Activity against clinical isolate ([1]; S. aureus No. 1662, Oxacillin S, Hospital): A (‘A’ if the MIC was ≦8 micrograms/ml) | MIC Activity against clinical isolate ([1]; S. aureus No. 1725, Oxacillin R, Van-S, LZD-R, Hospital (G2576T)): A (‘A’ if the MIC was ≦8 micrograms/ml) | MIC Activity against clinical isolate ([1]; S. aureus No. 1729, Oxacillin R, Tet-R, MI-R, Hospital): A (‘A’ if the MIC was ≦8 micrograms/ml) | MIC Activity against clinical isolate ([1]; S. aureus No. 2011, Oxacillin R, Tet-R, MI-S, Hospital (tetK)): A (‘A’ if the MIC was ≦8 micrograms/ml) | MIC Activity against clinical isolate ([1]; S. aureus No. 2012, Oxacillin R, Van-I, LZD-S, Hospital): A (‘A’ if the MIC was ≦8 micrograms/ml) | MIC Activity against clinical isolate ([1]; S. aureus No. 2018, Oxacillin R, Van-I, LZD-S, Hospital): A (‘A’ if the MIC was ≦8 micrograms/ml) | MIC Activity against clinical isolate ([1]; S. aureus No. 2142, Oxacillin R, CC-S, SXT-S, Community): A (‘A’ if the MIC was ≦8 micrograms/ml) | MIC Activity against clinical isolate ([1]; S. aureus No. 2143, Oxacillin R, Rif-R, Community): A (‘A’ if the MIC was ≦8 micrograms/ml) | MIC Activity against clinical isolate ([1]; S. aureus No. 2147, Oxacillin R, CC-S, SXT-S, Community): A (‘A’ if the MIC was ≦8 micrograms/ml) | MIC Activity against clinical isolate ([1]; S. aureus No. 2149, Oxacillin R, CC-R (iMLS), SXT-S, Community): A (‘A’ if the MIC was ≦8 micrograms/ml) | MIC Activity against clinical isolate ([1]; S. aureus No. 2150, Oxacillin R, CC-R, SXT-S, Community): A (‘A’ if the MIC was ≦8 micrograms/ml) | MIC Activity against clinical isolate ([1]; S. aureus No. 2158, Oxacillin R, CC-R, Doxy-I, Community): A (‘A’ if the MIC was ≦8 micrograms/ml) | MIC Activity against clinical isolate ([1]; S. aureus No. 2175, Oxacillin R, TMP-R, Community): A (‘A’ if the MIC was ≦8 micrograms/ml) | MIC Activity against clinical isolate ([1]; S. epidermidis No. 831, Oxacillin R): A (‘A’ if the MIC was ≦8 micrograms/ml) | MIC Activity against clinical isolate ([1]; S. epidermidis No. 1139, Oxacillin S): A (‘A’ if the MIC was ≦8 micrograms/ml) | MIC Activity against clinical isolate ([1]; S. epidermidis No. 1142, Oxacillin R): A (‘A’ if the MIC was ≦8 micrograms/ml) | MIC Activity against clinical isolate ([1]; S. epidermidis No. 1144, Oxacillin R): A (‘A’ if the MIC was ≦8 micrograms/ml) | MIC ([1]; Staphylococcus aureus, ATCC29213, S. aureus No. 0100, Oxacillin S, ATCC 29213): < 8 µg/mL | MIC ([1]; Staphylococcus aureus, S. aureus No. 1015, Oxacillin R, Van-S, LZD-S, Hospital): < 8 µg/mL | MIC ([1]; Staphylococcus epidermidis, S. epidermidis No. 835, Oxacillin S): < 8 µg/mL | MIC [2]: < 8 µg/mL | MIC (Bacillus subtilis 168CA): < 8 µg/mL | Percent survival (Staphylococcus aureus): 100% | MIC [3, 4]: < 8 µg/mL | MIC [3, 5]: < 8 µg/mL | MIC [3, 6]: < 8 µg/mL | MIC [3, 7]: < 8 µg/mL

NC(=O)c1c(F)ccc(OCc2nc(-c3ccc(Cl)cc3)no2)c1F [Example 246, 3-[3-(4-Chlorophenyl)-1,2,4-oxadiazol-5-yl]methoxy-2,6-difluorobenzenecarboxamide]
MIC [2]: < 8 µg/mL | MIC (Bacillus subtilis 168CA): < 8 µg/mL | Percent survival (Staphylococcus aureus): 100% | MIC [3, 4]: < 8 µg/mL | MIC [3, 5]: < 8 µg/mL | MIC [3, 6]: < 8 µg/mL | MIC [3, 7]: < 8 µg/mL
